Columns and labels:
D(3) dopamine receptor = D(3) dopamine receptor (Homo sapiens, UniProt P35462); assay: Binding Assay; conditions: pH 7.4; 22 °C
Procedure: (§1) Affinities for D3-dopaminergic, D2-dopaminergic and beta2-adrenergic receptors were determined by radioligand competition binding at the National Institute of Mental Health Psychoactive Drug Screening Program.

D(2) dopamine receptor = D(2) dopamine receptor (Homo sapiens, UniProt P14416); assay: Binding Assay; conditions: pH 7.4; 22 °C
Procedure: as §1

Sequence of D(2) dopamine receptor (P14416 whole entry): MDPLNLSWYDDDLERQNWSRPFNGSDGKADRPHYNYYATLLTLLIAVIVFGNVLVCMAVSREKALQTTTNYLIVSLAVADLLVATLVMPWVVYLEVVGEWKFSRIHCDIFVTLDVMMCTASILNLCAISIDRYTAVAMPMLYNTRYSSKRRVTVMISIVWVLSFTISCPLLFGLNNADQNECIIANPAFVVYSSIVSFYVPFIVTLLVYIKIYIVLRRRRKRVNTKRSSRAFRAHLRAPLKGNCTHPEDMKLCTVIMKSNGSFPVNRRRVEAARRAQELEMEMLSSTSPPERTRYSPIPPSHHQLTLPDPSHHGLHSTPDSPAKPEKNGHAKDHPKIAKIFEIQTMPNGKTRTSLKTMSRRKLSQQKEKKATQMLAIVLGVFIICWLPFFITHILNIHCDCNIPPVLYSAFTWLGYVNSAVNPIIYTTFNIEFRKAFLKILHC
Sequence of D(3) dopamine receptor (P35462 as listed by the source): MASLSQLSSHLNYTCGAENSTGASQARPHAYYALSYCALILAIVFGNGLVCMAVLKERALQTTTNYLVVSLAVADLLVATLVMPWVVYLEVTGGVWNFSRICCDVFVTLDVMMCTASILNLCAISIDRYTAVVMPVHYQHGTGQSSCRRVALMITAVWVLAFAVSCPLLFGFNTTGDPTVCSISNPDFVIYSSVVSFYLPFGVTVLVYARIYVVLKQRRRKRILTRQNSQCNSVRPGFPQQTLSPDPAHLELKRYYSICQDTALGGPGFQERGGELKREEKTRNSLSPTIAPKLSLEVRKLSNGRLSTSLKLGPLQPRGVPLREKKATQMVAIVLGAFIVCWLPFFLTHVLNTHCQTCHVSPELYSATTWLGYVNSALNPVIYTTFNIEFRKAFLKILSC

SMILES	Ki (D(3) dopamine receptor)	Ki (D(2) dopamine receptor)
CNCc1ccc(-c2cc(Cl)cc(Cl)c2)o1 [Azanium analog, 55]	0.2 µM	–
Cc1ccc(-c2ccc(CNC(C)(C)CO)o2)cc1Cl [ZINC 4999756, 68]	2.74 µM	–
O=c1oc2c(CN3CCCC3)c(O)ccc2c2c1CCC2 [ZINC 118327, 8]	> 10 µM	–
CN(Cc1nc2ccccc2s1)C[C@H](O)Cc1ccccc1 [ZINC 27406499, 25]	> 10 µM	–
CC(C)(C)NCc1ccc(-c2ccccc2)o1 [ZINC 4942833, 65]	8.67 µM	2.9 µM
CC(C)(CO)NCc1ccc(-c2ccccc2)o1 [ZINC 529108, 67]	9.58 µM	–
CC[C@@H](CO)NCc1ccc(-c2cccc(Cl)c2C)o1 [ZINC 7538899, 72]	0.817 µM	–
Clc1ccc(Cl)c(-c2ccc(CNC3CC3)o2)c1 [ZINC 4868730, 70]	2.71 µM	6.61 µM
CC(C)(CO)NCc1ccc(-c2ccc(F)c(Cl)c2)o1 [ZINC 4942963, 64]	6.81 µM	–
C[C@H](O)CNCc1ccc(-c2cccc(Cl)c2)o1 [ZINC 4842613, 71]	0.488 µM	–
C[C@H](C1CC1)N(CCC(=O)N1CCc2ccccc21)C1CC1 [ZINC 42123507, 27]	> 10 µM	–
CC(C)(C)NCc1ccc(-c2ccccc2Cl)o1 [ZINC 6743145, 66]	5.46 µM	–

The remaining lines, values ahead:

Ki (D(3) dopamine receptor)	Ki (D(2) dopamine receptor)	SMILES
7.21 µM	–	CN(CCCOc1ccccc1)CC(=O)N1CCc2ccccc21 [ZINC 48057418, 45]
10 µM	–	Cc1cccc2nc(C(=O)NCC(C)N(C)C)cn12 (configuration not stated) [ZINC 46272073, 50]
8.74 µM	–	CN(CCOc1cccc(F)c1)CC(O)c1c(F)cccc1F (configuration not stated) [ZINC 51423503, 49]
9.83 µM	6.35 µM	CCSc1nnc2n1CCCN2C(=O)CN1CCOCC1 [ZINC 17173082, 12]
10 µM	–	N#C/C(=C\c1ccco1)C(=O)N1CCN(CCc2ccccc2)CC1 [ZINC 29218552, 47]
8.89 µM	–	CC(C)NCc1ccc(-c2ccccc2)o1 [ZINC 10436232, 69]
7.77 µM	–	CN(C)[C@H](CNC(=O)c1cc([N+](=O)[O-])cc([N+](=O)[O-])c1)c1ccco1 [ZINC 49944321, 48]
9.31 µM	–	c1ccc(-c2n[nH]cc2CNCc2ccc(Cn3ccnc3)cc2)cc1 [ZINC 42228310, 26]
9.28 µM	–	CC1CCN(CCC(=O)N2c3ccccc3C[C@@H]2C)CC1 [ZINC 39217391, 11]
9.46 µM	–	O[C@@H](CN1CCC(Oc2cccc(F)c2)CC1)c1cccs1 [ZINC 19294224, 9]
10 µM	–	c1ccc(Cn2cncn2)c(CNCc2ccc(-n3ccnc3)cc2)c1 [ZINC 30900826, 10]
10 µM	–	Cc1cccc2nc(C(=O)NCC(c3ccco3)N(C)C)cn12 (configuration not stated) [ZINC 41903371, 52]
